Laboratory results published in patent publication US20020028807A1, “Non-nucleoside reverse transcriptase inhibitors” (priority 2000, published 2002).

How the values were obtained:
[1] = target: T1, HIV-1 RT K103N/Y181C (Human immunodeficiency virus type 1 group M subtype B, UniProt P03366, K702N/Y780C); experiment: Reverse transcriptase (RT) assay, K103N/Y181C mutant; assay type: biochemical
T1 construct: an HIV RT clone pKRT2 containing only the RT p66 gene regulated by the lac operon/trc promoter; made in house; host or cells: E. coli JM109, vector pKK233-2
Summary of the method: (§1)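 Cell-free assay in which recombinant mutant RT (HIV-1 IIIB clone BH10, made by site-directed mutagenesis) transcribes a radiolabelled DNA strand from a poly r(C) template primed with biotinylated oligo d(G), using 3H-dGTP as substrate. Inhibition is measured as reduced label incorporation, under conditions analogous to the wild-type enzyme assay.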

[2] = system: HIV coding for mutant reverse transcriptase K103N/Y181C; experiment: ELISA (p24) assay of HIV replication in C8166 cell culture, K103N/Y181C virus; assay type: cell-based, HIV-1; conditions: Human immunodeficiency virus 1, C8166, 72 h, read-out: EC50 K103N/Y181C
Protocol: (§2) Compounds of the invention were tested for their ability to inhibit HIV replication in cell culture in a 96-well plate assay. Complete RPMI 1640, consisting of RPMI 1640+10% fetal bovine serum, 10 μg/ml gentamycin and 10 μM β-mercaptoethanol was used for dilution of the compound as well as cell growth medium. The T lymphocyte cell line C8166 was infected at a multiplicity of infection of 0.001 with viruses coding for wild-type and mutant reverse transcriptase. Cells were then incubated for three days in the presence of serial dilutions of the compounds of the invention. The supernatant was pooled from eight replica wells and the concentration of extracellular p24 was determined using a commercially available HIV-1 p24 antigen assay kit (Beckman-Coulter®). The level of inhibition (% inhibition) was calculated with the following equation: [formula]

[3] = system: HIV coding for wild-type reverse transcriptase (WT RT); experiment: ELISA (p24) assay of HIV replication in C8166 cell culture, wild-type RT virus; assay type: cell-based, HIV-1; conditions: Human immunodeficiency virus 1, C8166, 72 h, read-out: EC50 WT RT
Summary of the method: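 C8166 T cells infected at MOI 0.001 with wild-type or mutant RT HIV, then grown 3 days with serial compound dilutions in RPMI 1640 + 10% FBS. Extracellular p24 in supernatant pooled from eight replica wells measured by ELISA; % inhibition calculated from p24 levels.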

[4] = target: T2, HIV-1 RT K103N/L100I (Human immunodeficiency virus type 1 group M subtype B, UniProt P03366, K702N/L699I); experiment: Reverse transcriptase (RT) assay, K103N/L100I mutant; assay type: biochemical
T2 construct: an HIV RT clone pKRT2 containing only the RT p66 gene regulated by the lac operon/trc promoter; made in house; host or cells: E. coli JM109, vector pKK233-2
Summary of the method: as §1

[5] = system: HIV coding for mutant reverse transcriptase K103N/L100I; experiment: ELISA (p24) assay of HIV replication in C8166 cell culture, K103N/L100I virus; assay type: cell-based, HIV-1; conditions: Human immunodeficiency virus 1, C8166, 72 h, read-out: EC50 K103N/L100I
Protocol: as §2

[6] = target: T3, HIV-1 RT Y181C (Human immunodeficiency virus type 1 group M subtype B, UniProt P03366, Y780C); experiment: Reverse transcriptase (RT) assay, Y181C mutant; assay type: biochemical
T3 construct: an HIV RT clone pKRT2 containing only the RT p66 gene regulated by the lac operon/trc promoter; made in house; host or cells: E. coli JM109, vector pKK233-2
Summary of the method: as §1

[7] = target: T4, HIV-1 RT K103N/V108I (Human immunodeficiency virus type 1 group M subtype B, UniProt P03366, K702N/V707I); experiment: Reverse transcriptase (RT) assay, K103N/V108I mutant; assay type: biochemical
T4 construct: an HIV RT clone pKRT2 containing only the RT p66 gene regulated by the lac operon/trc promoter; made in house; host or cells: E. coli JM109, vector pKK233-2
Summary of the method: as §1

[8] = system: HIV coding for mutant reverse transcriptase K103N; experiment: ELISA (p24) assay of HIV replication in C8166 cell culture, K103N virus; assay type: cell-based, HIV-1; conditions: Human immunodeficiency virus 1, C8166, 72 h, read-out: EC50 K103N
Protocol: as §2

[9] = target: T5, HIV-1 RT Y188L (Human immunodeficiency virus type 1 group M subtype B, UniProt P03366, Y787L); experiment: Reverse transcriptase (RT) assay, Y188L mutant; assay type: biochemical
T5 construct: an HIV RT clone pKRT2 containing only the RT p66 gene regulated by the lac operon/trc promoter; made in house; host or cells: E. coli JM109, vector pKK233-2
Summary of the method: as §1

Compound `CCN1c2ncc(CCOc3cc[n+]([O-])c4ccccc34)cc2C(=O)N(C)c2ccc(F)nc21` [compound 11, 5,11-Dihydro-11-ethyl-2-fluoro-5-methyl-8-{2-{(1-oxido-4-quinolinyl)oxy}-ethyl}-6H-dipyrido[3,2-b:2′,3′-e][1,4]diazepin-6-one] has an IC50 [1] of 55 nM, an EC50 [2] of 7.5 nM and an EC50 [3] of 0.34 nM. It also gave an IC50 [4] of 102 nM, an EC50 [5] of 3.2 nM and an IC50 [6] of 27 nM. For the same compound, the IC50 [7] was 55 nM, the EC50 [8] was 2 nM and the IC50 [9] was 661 nM.

`CCN1c2ncc(CCOc3cc[n+]([O-])c4ccccc34)cc2C(=O)N(C)c2ccc(Cl)nc21` [compound 17, 2-Chloro-5,11-dihydro-11-ethyl-5-methyl-8-{2-{(1-oxido-4-quinolinyl)oxy}-ethyl}-6H-dipyrido[3,2-b:2′,3′-e][1,4]diazepin-6-one] was tested, and the IC50 [1] was 48 nM, the EC50 [2] was 2.3 nM and the EC50 [3] was 0.34 nM. For the same compound, the IC50 [4] was 40 nM, the EC50 [5] was 1.2 nM and the IC50 [6] was 29 nM. For the same compound, the IC50 [7] was 83 nM, the EC50 [8] was 1.5 nM and the IC50 [9] was 198 nM.

For `CCN1c2ncc(CCOc3cc[n+]([O-])c4ccccc34)cc2C(=O)N(C)c2cccnc21` [compound 21, 5,11-Dihydro-11-ethyl-5-methyl-8-{2-{(1-oxido-4-quinolinyl)oxy}ethyl}-6H-dipyrido[3,2-b:2′,3′-e][1,4]diazepin-6-one], the IC50 [1] was 95 nM, the EC50 [2] was 4.3 nM and the EC50 [3] was 0.53 nM. For the same compound, the IC50 [4] was 168 nM, the EC50 [5] was 5.9 nM and the IC50 [6] was 51 nM. The IC50 [7] was 120 nM, the EC50 [8] was 3.5 nM and the IC50 [9] was 1360 nM.
